As usually defined, the DC50 is the concentration at which degradation of the target reaches its halfway point. A word on the IC50: it is the midpoint of a concentration-inhibition curve. A lower IC50 goes with higher potency.

Results on one molecule are retold here after ChEMBL document CHEMBL5579829, “Discovery of a potent CDKs/FLT3 PROTAC with enhanced differentiation and proliferation inhibition for AML” (Eur J Med Chem, 2024).

The source made the active and inactive calls. No cut-off for these calls is given here.

Test [1] deals with T1, Protein cereblon/Cyclin-dependent kinase 2 (Homo sapiens, UniProt P24941+Q96SW2). Nature of the test: Protac activity at CRBN/CDK2 in human HL-60 cells assessed as induction of CDK2 degradation at 10 nM measured after 24 hrs in presence of CRBN ligand thalidomide by Western blot analysis. It counts as cell-based. For orientation: Immunoblotting shows a protein as a band on a membrane.

Test [2] addresses Protein cereblon/Cyclin-dependent kinase 1 (Homo sapiens) (UniProt P06493+Q96SW2). The experiment in a line: Protac activity at CRBN/CDK1 in human Kasumi 1 cells assessed as induction of CDK1 degradation at 2 to 32 nM measured after 3 days by Western blot analysis. In kind it is cell-based. To be noted: dose 2-32 nM, time 3.0 day.
Test [3] addresses T1, Protein cereblon/Cyclin-dependent kinase 2. The experiment in a line: Protac activity at CRBN/CDK2 in human HL-60 cells assessed as induction of CDK2 degradation by Western blot analysis. In kind it is cell-based.
Test [4] has the same target. The experiment in a line: Protac activity at CRBN/CDK2 in human HL-60 cells assessed as induction of CDK2 degradation measured after 3 days by Western blot analysis. In kind it is cell-based.
The test system of the next test is MOLM-13. The experiment in a line: Antiproliferative activity against human MOLM-13 cells measured after 1 to 3 days by CCK-8 assay. It counts as functional, cell-based. (Tetrazolium assays rely on reduction of a dye to a coloured formazan, in cell work by metabolically active cells.)
The subject of test [5] is HL-60. Nature of the test: Induction of pro-differentiation of human HL-60 cells assessed as CD11b expression at 2 nM measured after 3 days by immunostaining-based flow cytometry (reference value: 8.32 to 10.55%). In kind it is functional. To be noted: time 3 day. In general terms: A flow cytometer gives signals particle by particle.
For test [6], the system named is HL-60. The experiment in a line: Induction of pro-differentiation of human HL-60 cells assessed as increase in CD11b expression at 6.25 nM measured after 5 days by immunostaining-based flow cytometry relative to control. As to conditions: time 5 day. In kind it is functional.
The target of test [7] is T1, Protein cereblon/Cyclin-dependent kinase 2. The experiment in a line: Protac activity at CRBN/CDK2 in human MV4-11 cells assessed as induction of CDK2 degradation at 2 to 32 nM measured after 3 days by Western blot analysis. In kind it is cell-based. As to conditions: dose 2-32 nM, time 3.0 day.
The subject of a further test is MV4-11. Nature of the test: Antiproliferative activity against human MV4-11 cells measured after 1 to 3 days by CCK-8 assay. It counts as functional, cell-based.
Test [8] has as its target T2, Protein cereblon/Cyclin-dependent kinase 9 (Homo sapiens, UniProt P50750+Q96SW2). The experiment in a line: Protac activity at CRBN/CDK9 in human MV4-11 cells assessed as induction of CDK9 degradation at 2 to 32 nM measured after 3 days by Western blot analysis. In kind it is cell-based. As to conditions: dose 2-32 nM, time 3.0 day.
Target sequence in this assay (P50750 whole entry, looked up): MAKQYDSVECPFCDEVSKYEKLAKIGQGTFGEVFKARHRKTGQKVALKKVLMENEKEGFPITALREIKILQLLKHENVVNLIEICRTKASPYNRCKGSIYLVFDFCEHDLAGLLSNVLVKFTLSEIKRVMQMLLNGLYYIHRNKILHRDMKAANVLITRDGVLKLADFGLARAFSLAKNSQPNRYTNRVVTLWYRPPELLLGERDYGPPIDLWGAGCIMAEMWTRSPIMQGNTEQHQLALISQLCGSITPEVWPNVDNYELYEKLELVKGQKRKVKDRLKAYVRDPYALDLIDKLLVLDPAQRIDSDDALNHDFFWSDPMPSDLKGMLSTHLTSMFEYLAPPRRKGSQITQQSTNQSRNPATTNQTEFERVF
Target sequence in this assay (Q96SW2 whole entry, looked up): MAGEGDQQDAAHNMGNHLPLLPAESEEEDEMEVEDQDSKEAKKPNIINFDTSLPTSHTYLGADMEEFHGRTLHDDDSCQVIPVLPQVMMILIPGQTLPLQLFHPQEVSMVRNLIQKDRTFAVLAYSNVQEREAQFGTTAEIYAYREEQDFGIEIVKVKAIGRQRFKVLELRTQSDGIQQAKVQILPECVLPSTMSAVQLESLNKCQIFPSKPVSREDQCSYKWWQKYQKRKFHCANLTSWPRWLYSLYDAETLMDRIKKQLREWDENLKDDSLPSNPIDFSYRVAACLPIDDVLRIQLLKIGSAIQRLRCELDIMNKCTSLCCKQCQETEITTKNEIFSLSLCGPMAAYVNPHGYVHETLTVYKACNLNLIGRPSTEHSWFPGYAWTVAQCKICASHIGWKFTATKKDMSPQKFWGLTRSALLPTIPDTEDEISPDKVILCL
The subject of test [9] is HL-60. Nature of the test: Induction of pro-differentiation of human HL-60 cells assessed as increase in CD11b expression measured after 3 to 5 days by immunostaining-based flow cytometry. It counts as functional, cell-based. As to conditions: dose 1-6.25 nM, time 3-5 day.
In test [10] the test system is HL-60. The experiment in a line: Induction of pro-differentiation of human HL-60 cells assessed as CD11b expression at 4 nM measured after 5 days by immunostaining-based flow cytometry (reference value: 10.08 to 10.33%). In kind it is functional. As to conditions: time 5 day.
For test [11], the target named is T1, Protein cereblon/Cyclin-dependent kinase 2. The experiment in a line: Protac activity at CRBN/CDK2 in human THP-1 cells assessed as induction of CDK2 degradation at 4 to 64 nM measured after 3 days by Western blot analysis. In kind it is cell-based. As to conditions: dose 4-64 nM, time 3.0 day.
In test [12] the target is Protein cereblon/Cyclin-dependent kinase 6 (Homo sapiens, UniProt Q00534+Q96SW2). Nature of the test: Protac activity at CRBN/CDK6 in human THP-1 cells assessed as induction of CDK6 degradation at 4 to 64 nM measured after 3 days by Western blot analysis. In kind it is cell-based. As to conditions: dose 4-64 nM, time 3.0 day.
Test [13] deals with HL-60. Nature of the test: Induction of pro-differentiation of human HL-60 cells assessed as increase in CD11b expression at 6.25 nM measured after 3 days by immunostaining-based flow cytometry relative to control. It counts as functional. As to conditions: time 3 day.
Test [14] concerns HL-60. Nature of the test: Induction of pro-differentiation of human HL-60 cells assessed as increase in CD11b expression at 6.25 nM measured after 5 days by immunostaining-based flow cytometry relative to 500 nM CPS2. In kind it is functional. To be noted: time 5 day.
For test [15], the target named is T1, Protein cereblon/Cyclin-dependent kinase 2. The experiment in a line: Protac activity at CRBN/CDK2 in human Kasumi 1 cells assessed as induction of CDK2 degradation at 2 to 32 nM measured after 3 days by Western blot analysis. In kind it is cell-based. As to conditions: dose 2-32 nM, time 3.0 day.
The subject of a further test is OCI-AML2. Nature of the test: Antiproliferative activity against human OCI-AML2 cells measured after 1 to 3 days by CCK-8 assay. In kind it is functional, cell-based.
The target of test [16] is T3, Protein cereblon/Cyclin-dependent kinase 4 (Homo sapiens, UniProt P11802+Q96SW2). The experiment in a line: Protac activity at CRBN/CDK4 in human HL-60 cells assessed as induction of CDK4 degradation measured after 3 days by Western blot analysis. In kind it is cell-based.
Target sequence in this assay (P11802 whole entry): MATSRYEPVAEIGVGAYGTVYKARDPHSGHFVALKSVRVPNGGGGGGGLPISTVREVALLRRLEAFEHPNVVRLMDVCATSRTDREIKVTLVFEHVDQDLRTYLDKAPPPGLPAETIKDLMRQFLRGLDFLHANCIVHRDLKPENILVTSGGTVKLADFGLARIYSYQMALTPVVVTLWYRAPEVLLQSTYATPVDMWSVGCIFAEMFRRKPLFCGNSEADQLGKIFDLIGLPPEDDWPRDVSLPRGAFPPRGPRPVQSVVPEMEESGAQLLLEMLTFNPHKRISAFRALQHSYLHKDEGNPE
Target sequence in this assay (Q96SW2 whole entry): as the sequence (Q96SW2 whole entry, looked up) above
In test [17] the target is Protein cereblon/Cyclin-dependent kinase 5 (Homo sapiens) (UniProt Q00535+Q96SW2). Nature of the test: Protac activity at CRBN/CDK5 in human MV4-11 cells assessed as induction of CDK5 degradation at 2 to 32 nM measured after 3 days by Western blot analysis. As to conditions: dose 2-32 nM, time 3.0 day. It counts as cell-based.
In test [18] the target is T3, Protein cereblon/Cyclin-dependent kinase 4. The experiment in a line: Protac activity at CRBN/CDK4 in human THP-1 cells assessed as induction of CDK4 degradation at 4 to 64 nM measured after 3 days by Western blot analysis. It counts as cell-based. As to conditions: dose 4-64 nM, time 3.0 day.
Target sequence in this assay (P11802 2-303 limits assumed): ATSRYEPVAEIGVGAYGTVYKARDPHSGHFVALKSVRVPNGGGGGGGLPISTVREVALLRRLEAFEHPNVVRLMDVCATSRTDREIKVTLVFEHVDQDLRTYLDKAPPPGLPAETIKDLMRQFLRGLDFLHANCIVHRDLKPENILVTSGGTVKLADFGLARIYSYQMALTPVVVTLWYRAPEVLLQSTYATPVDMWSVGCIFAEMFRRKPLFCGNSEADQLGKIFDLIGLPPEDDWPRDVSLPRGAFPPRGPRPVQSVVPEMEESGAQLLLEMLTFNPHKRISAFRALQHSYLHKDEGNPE
Target sequence in this assay (Q96SW2 whole entry partner): as the sequence (Q96SW2 whole entry, looked up) above
Test [19] concerns the target T2, Protein cereblon/Cyclin-dependent kinase 9. Nature of the test: Protac activity at CRBN/CDK9 in human Kasumi 1 cells assessed as induction of CDK9 degradation at 2 to 32 nM measured after 3 days by Western blot analysis. In kind it is cell-based. To be noted: dose 2-32 nM, time 3.0 day.
Target sequence in this assay (P50750 whole entry, looked up): as the sequence (P50750 whole entry, looked up) above
Target sequence in this assay (Q96SW2 whole entry, looked up): as the sequence (Q96SW2 whole entry, looked up) above
The next test relates to NB-4. Nature of the test: Antiproliferative activity against human NB4 cells measured after 1 to 3 days by CCK-8 assay. It counts as functional, cell-based.
Test [20] has as its target T2, Protein cereblon/Cyclin-dependent kinase 9. Nature of the test: Protac activity at CRBN/CDK9 in human HL-60 cells assessed as induction of CDK9 degradation measured after 3 days by Western blot analysis. It counts as cell-based.
Target sequence in this assay (P50750 whole entry): as the sequence (P50750 whole entry, looked up) above
Target sequence in this assay (Q96SW2 whole entry): as the sequence (Q96SW2 whole entry, looked up) above

Protein cereblon/Cyclin-dependent kinase 1 (Homo sapiens), sequence (P06493 whole entry, looked up): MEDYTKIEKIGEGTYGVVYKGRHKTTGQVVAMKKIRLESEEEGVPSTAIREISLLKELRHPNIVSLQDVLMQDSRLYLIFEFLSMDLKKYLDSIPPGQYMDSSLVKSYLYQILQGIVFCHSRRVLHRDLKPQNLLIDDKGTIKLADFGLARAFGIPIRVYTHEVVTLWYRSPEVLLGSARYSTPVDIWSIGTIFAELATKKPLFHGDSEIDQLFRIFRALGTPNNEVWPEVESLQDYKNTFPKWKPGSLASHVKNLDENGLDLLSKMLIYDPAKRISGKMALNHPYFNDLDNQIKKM
Protein cereblon/Cyclin-dependent kinase 1 (Homo sapiens), sequence (Q96SW2 whole entry, looked up): as the sequence (Q96SW2 whole entry, looked up) above
Protein cereblon/Cyclin-dependent kinase 5 (Homo sapiens), sequence (Q00535 whole entry, looked up): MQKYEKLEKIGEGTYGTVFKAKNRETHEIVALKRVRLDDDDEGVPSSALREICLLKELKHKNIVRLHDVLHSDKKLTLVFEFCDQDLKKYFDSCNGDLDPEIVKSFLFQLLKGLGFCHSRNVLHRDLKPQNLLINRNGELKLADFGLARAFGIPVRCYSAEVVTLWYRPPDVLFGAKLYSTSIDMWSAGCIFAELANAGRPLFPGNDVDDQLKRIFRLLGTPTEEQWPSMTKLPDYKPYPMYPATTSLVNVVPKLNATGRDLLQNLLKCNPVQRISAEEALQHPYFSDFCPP
Protein cereblon/Cyclin-dependent kinase 5 (Homo sapiens), sequence (Q96SW2 whole entry, looked up): as the sequence (Q96SW2 whole entry, looked up) above
Protein cereblon/Cyclin-dependent kinase 6, sequence (Q00534 whole entry, looked up): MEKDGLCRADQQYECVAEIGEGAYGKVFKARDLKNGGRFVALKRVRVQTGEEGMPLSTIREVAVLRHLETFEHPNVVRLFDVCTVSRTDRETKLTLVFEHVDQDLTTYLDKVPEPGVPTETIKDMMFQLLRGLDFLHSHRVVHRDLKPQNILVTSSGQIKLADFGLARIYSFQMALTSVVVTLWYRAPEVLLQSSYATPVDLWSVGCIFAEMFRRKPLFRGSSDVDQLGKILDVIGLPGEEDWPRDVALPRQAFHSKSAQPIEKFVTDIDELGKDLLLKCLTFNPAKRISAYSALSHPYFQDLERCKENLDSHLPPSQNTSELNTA
Protein cereblon/Cyclin-dependent kinase 6, sequence (Q96SW2 whole entry, looked up): as the sequence (Q96SW2 whole entry, looked up) above

`O=C1CCC(N2C(=O)c3ccc(N4CCC(CN5CCN(Cc6ccc(NC(=O)c7n[nH]cc7Nc7ncnc8[nH]ccc78)cc6)CC5)CC4)cc3C2=O)C(=O)N1` (centres undefined): the outcome in test [1], in test [2] and in test [17] was inactive. Also, the 50% degradation concentration (DC50) in [3] stood at 12.7 nM; in test [4] it was 4.74 nM; in [16], 4.41 nM; in [20] it was 4.34 nM. The half-maximal inhibitory concentration (IC50) in the test on MOLM-13 came out at 4.52 nM; with MV4-11, 2.9 nM; in the test on OCI-AML2 it was 17.9 nM; in the test with NB-4, 4.94 nM. Besides, the values for the Activity in the test with HL-60 [5], in the test on HL-60 [9] and in the test on HL-60 [10] were 29.09%, “Dose-Dependent Effect” and 58.59%, respectively. Further, the entries for the “fold change (FC)” value with HL-60 [6], with HL-60 [13] and in the test on HL-60 [14] were 7.2, 5.7 and 2.1, respectively. For the same molecule, the result in test [7], in test [8], in [11], in test [12], in test [15] and in [18] was Active. Also, the result in [19] was Active.
